From ChEMBL document CHEMBL1146785, “Synthesis and activity of phosphinic tripeptide inhibitors of cathepsin C” (Bioorg Med Chem Lett, 2004)

Molecular target: T1, Dipeptidyl peptidase 1 (Mus musculus, UniProt P97821)
T1 sequence (P97821 whole entry): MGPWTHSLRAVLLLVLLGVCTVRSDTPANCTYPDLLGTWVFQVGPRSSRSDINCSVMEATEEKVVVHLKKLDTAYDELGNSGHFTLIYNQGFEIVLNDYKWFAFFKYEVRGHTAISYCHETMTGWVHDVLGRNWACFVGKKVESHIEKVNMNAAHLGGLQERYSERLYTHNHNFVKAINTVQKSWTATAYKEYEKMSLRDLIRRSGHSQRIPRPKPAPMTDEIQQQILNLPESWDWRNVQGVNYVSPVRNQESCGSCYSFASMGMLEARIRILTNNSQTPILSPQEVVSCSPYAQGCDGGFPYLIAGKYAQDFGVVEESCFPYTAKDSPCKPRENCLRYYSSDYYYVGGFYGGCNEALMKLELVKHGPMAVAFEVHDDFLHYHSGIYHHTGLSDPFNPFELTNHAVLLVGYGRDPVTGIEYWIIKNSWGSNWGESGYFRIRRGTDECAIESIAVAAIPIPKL
Experiment: Compound was evaluated to inhibit cathepsin C (Dipeptidyl peptidase I) in non competitive binding assay

| Ki [µM] | Compound |
| --- | --- |
| 312 | COC(=O)CCP(=O)(O)C(CCc1ccccc1)NC(=O)CN (stereo not drawn) |
| 39 | CC(C)CC(NC(=O)CN)P(=O)(O)CCC(=O)O (stereo not drawn) |
| 188 | COC(=O)CCP(=O)(O)C(NC(=O)CN)c1ccccc1 (stereo not drawn) |
| 429 | NCC(=O)NC(Cc1ccccc1)P(=O)(O)CCC(=O)O (stereo not drawn) |
| 40 | COC(=O)CCP(=O)(O)C(CC(C)C)NC(=O)CN (stereo not drawn) |
| 514 | COC(=O)CCP(=O)(O)C(Cc1ccccc1)NC(=O)CN (stereo not drawn) |
| 176 | NCC(=O)NC(c1ccccc1)P(=O)(O)CCC(=O)O (stereo not drawn) |
| 187 | NCC(=O)NC(CCc1ccccc1)P(=O)(O)CCC(=O)O (stereo not drawn) |
